Experimental data taken from patent US20230015539A1, “METHOD OF TREATMENT WITH KCNQ CHANNEL OPENERS” (Icahn School of Medicine at Mount Sinai, priority 2019, published 2023).
“Also recorded” adds a separate entry of the source.

Columns and labels:
[1] = tested on: patients with major depressive disorder (MDD) or persistent depressive disorder (PDD); assay: Multi-center, double-blind, randomized, placebo-controlled clinical trial of ezogabine (clinical rating scales); type: in vivo, human
Source text: The well-known Montgomery-Asberg Depression Rating Scale (MADRS) is employed to capture change in overall depressive severity. […] The primary clinical outcome is a MADRS subscale composed of items 7 and 8 from the MADRS that capture symptoms of reduced motivation, low energy, and loss of interest or pleasure, which are termed “MADRS”.
The Temporal Experience of Pleasure Scale (TEPS) is designed to capture the separate reward processing components of anticipation and consumption, mapping the PVS constructs of AM/reward expectancy and IRRA/SSRA, respectively.
The TEPS is an 18-item self-report measurement of anticipatory (10 items) and consummatory (eight items) components of anhedonia which consists of a series of statements that must be rated according to how accurate they are for the individual. The scale differentiates the role of anticipatory pleasure (‘wanting’) from consummatory pleasure (‘liking’). The TEPS-Anticipatory sub-scale is a validated measure of anticipation of reward (higher scores are better); the TEPS-Consummatory sub-scale is a validated measure of response to receipt of reward.
Two additional instruments include the Specific Loss of Interest and Pleasure Scale (SLIPS) and the Anticipatory and Consummatory Interpersonal Pleasure Scale (ACIPS) which offer additional unique features, including specificity for anhedonia in the context of depression, and a focus on social aspects of reward.
The Quick Inventory of Depressive Symptomatology-Self-Report (QIDS-SR) is a validated self-report of depression.
The CGI-S/I will provide an overall clinician-determined summary measure that takes into account all available information, including knowledge of the subject's history, psychosocial circumstances, symptoms, behavior, and the impact of the symptoms on the subject's ability to function. The CGI evaluates the severity of psychopathology from 1 to 7. The CGI-S is a widely administered clinician rated global measure of overall illness severity. Subjects are rated on a 1-7 scale where 1 corresponds to “Normal, Not at All Ill”, 2 is “Borderline Mentally Ill”, the anchor for 3 is “Mildly Ill”, the anchor for 4 is “Moderately Ill”, 5 is “Markedly Ill”, 6 is “Severely Ill”, and 7 is “Among the Most Extremely Ill Patients”. It will be administered at all subject visits. The CGI-I is a widely administered clinician rated global measure of the degree of improvement from the initial assessment in subject overall illness severity. […] It will be administered at all subject visits.
The study procedures were conducted at the Icahn School of Medicine at Mount Sinai in New York City and at Baylor College of Medicine in Houston, Tex. Participants were between the ages of 18 and 65 and meet DSM-V criteria for major depressive disorder (MDD) or persistent depressive disorder (PDD, a chronic form of depression), as assessed by a trained rater using the Structured Clinical Interview for Diagnostic and Statistical Manual of Mental Disorders-Fifth Edition Text Revision (DSM-V-TR) Axis I Disorders, Patient Edition (SCID-I/P).
Following screening (Day −28 to Day −2), screening data was reviewed by the site PI to determine subject eligibility. Subjects who met all inclusion criteria and none of the exclusion criteria entered into the study. All eligible participants returned to the clinics to complete the baseline assessments and undergo randomization (Day 0, Baseline). Baseline assessments included clinical evaluations, the PRT and fMRI scanning (details below). […] Randomization was balanced by using randomly permuted blocks and stratified by center. A computer-generated randomization scheme developed by the coordinating site assigned a unique treatment code, which dictated the treatment assignment and matching study drug kit for each subject. The randomization list was provided by the research pharmacist at the coordinating site to the research pharmacist at the collaboration site.

ventral striatum (VS) = assay: fMRI during the Incentive Flanker Task: activation to reward anticipation; type: in vivo, human; conditions: baseline to primary outcome visit; ezogabine compared to placebo; n=40
Source text: Following screening (Day −28 to Day −2), screening data was reviewed by the site PI to determine subject eligibility. Subjects who met all inclusion criteria and none of the exclusion criteria entered into the study. All eligible participants returned to the clinics to complete the baseline assessments and undergo randomization (Day 0, Baseline). Baseline assessments included clinical evaluations, the PRT and fMRI scanning (details below). […] Randomization was balanced by using randomly permuted blocks and stratified by center. […]
At each visit, participants completed self-report and clinician-administered rating scales performed by trained raters, and met with a study psychiatrist who assessed suicidal thinking or behavior, adverse events (AE), and changes in concomitant medications. […]
The primary outcome measure of the study was a change in activation within the bilateral ventral striatum (VS, FIG. 1) from baseline (Study Visit 0) to the primary outcome visit (Study Visit 5) as measured by functional magnetic resonance imaging (fMRI) during the Incentive Flanker Task (IFT), a variant of the monetary incentive delay task (MID) as described above. […] Additional secondary outcome included change in behavioral symptoms of anhedonia through a computer-based task, the Probabilistic Reward Task (PRT), and global illness improvement and severity evaluated through changes in CGI-I and CGI-S scores. […]

[2] = tested on: patients diagnosed with PTSD; assay: Example 4: treatment of patients with PTSD; type: in vivo, human; conditions: 900 mg oral (300 mg TID) daily; example in present tense
[3] = tested on: patients enduring stressful life situations; assay: Example 5: inducing resilience in patients enduring stressful life situations; type: in vivo, human; conditions: 900 mg oral (300 mg TID) daily; example in present tense
[4] = human, in vivo; cited from earlier work
P-glycoprotein = P-glycoprotein (Homo sapiens, UniProt P08183); conditions: cited from earlier work
[5] = tested on: patients diagnosed with an anxiety disorder; assay: Example 3: treatment of patients with an anxiety disorder; conditions: 900 mg oral (300 mg TID); example in present tense
[6] = tested on: patients with treatment resistant depression (TRD); assay: Sub-group analysis of the clinical trial: patients with treatment resistant depression (TRD), MADRS
Source text: Treatment resistance is defined as at least one probable treatment failure as captured and by the Antidepressant Treatment form (AHTF).

Chain of P-glycoprotein (P08183 whole entry): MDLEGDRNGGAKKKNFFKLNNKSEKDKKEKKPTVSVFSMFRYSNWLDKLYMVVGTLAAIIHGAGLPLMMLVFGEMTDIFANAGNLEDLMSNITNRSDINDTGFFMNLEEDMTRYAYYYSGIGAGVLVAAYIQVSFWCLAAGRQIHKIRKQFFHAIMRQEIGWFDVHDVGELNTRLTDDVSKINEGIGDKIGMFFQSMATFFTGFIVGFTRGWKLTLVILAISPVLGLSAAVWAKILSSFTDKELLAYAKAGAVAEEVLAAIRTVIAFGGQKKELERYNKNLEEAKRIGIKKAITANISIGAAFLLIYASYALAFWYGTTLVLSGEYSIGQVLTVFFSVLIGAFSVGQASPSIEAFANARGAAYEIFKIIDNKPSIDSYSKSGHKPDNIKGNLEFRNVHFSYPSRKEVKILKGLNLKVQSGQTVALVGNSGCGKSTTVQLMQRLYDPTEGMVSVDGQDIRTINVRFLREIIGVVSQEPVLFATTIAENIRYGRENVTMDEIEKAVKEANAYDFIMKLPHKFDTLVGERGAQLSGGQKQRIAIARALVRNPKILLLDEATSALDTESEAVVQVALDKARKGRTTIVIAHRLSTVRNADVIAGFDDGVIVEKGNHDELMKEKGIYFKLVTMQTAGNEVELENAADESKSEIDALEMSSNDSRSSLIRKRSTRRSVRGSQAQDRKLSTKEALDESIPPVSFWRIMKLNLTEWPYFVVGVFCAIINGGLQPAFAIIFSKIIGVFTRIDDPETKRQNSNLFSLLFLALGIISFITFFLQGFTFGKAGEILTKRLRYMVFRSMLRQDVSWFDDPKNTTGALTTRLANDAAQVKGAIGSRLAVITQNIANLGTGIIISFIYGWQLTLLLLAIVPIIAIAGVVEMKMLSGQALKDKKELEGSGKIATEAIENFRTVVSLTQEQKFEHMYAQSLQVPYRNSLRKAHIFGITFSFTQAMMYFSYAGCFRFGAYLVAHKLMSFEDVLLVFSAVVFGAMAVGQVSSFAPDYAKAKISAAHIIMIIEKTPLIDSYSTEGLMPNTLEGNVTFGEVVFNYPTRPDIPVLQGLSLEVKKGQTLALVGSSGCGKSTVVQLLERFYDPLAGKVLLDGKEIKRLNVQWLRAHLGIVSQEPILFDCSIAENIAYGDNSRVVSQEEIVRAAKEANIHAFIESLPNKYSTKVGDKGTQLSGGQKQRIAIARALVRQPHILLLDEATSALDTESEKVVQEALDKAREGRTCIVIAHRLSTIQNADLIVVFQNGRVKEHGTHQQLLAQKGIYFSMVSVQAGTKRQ

CCOC(=O)Nc1ccc(NCc2ccc(F)cc2)cc1N [ezogabine, N-[2-amino-4-(4-fluorobenzylamino)-phenyl] carbamic acid ethyl ester]
SHAPS scores, Estimate (ezogabine compared to placebo) ([1]; anhedonia, n=45, p<0.0001): −1.55 | mean change from baseline in MADRS score ([1]; at the primary outcome visit, ezogabine up to 900 mg/day oral): 5.9±8.8 points | SHAPS, Cohen's d ([1]; ezogabine compared to placebo, medium effect size): 0.6 | MADRS, Cohen's d ([1]; ezogabine compared to placebo, n=45): 0.7 | TEPS anticipatory subscale (TEPS-ant), Estimate ([1]; ezogabine compared to placebo, n=45, p=0.0008): 1.33 | ACIPS, Estimate ([1]; ezogabine compared to placebo, p=0.0002): 2.77 | SLIPS, Estimate ([1]; ezogabine compared to placebo, p=0.0009): −1.78 | TEPS consummatory subscale (TEPS-con), Estimate ([1]; ezogabine compared to placebo, p=0.05): 0.64 | effect on anhedonia symptoms ([1]; human patients with depression and anhedonia, 300 mg TID oral, 5 weeks, SHAPS): successfully treated patients suffering from anhedonia; also recorded: reduction in anhedonia and related symptoms | change in activation to reward anticipation within ventral striatum (fMRI) (ventral striatum (VS)): increased response to reward in the brain | PTSD symptoms [2]: alleviated after treatment | resilience: managing emotional health and wellness [3]: better at managing their emotional health and wellness | median time to maximum plasma concentration (Tmax) [4]: 30 to 120 min | metabolism [4]: extensively metabolized primarily via glucuronidation and acetylation | P-glycoprotein active transport (P-glycoprotein): not subject to P-glycoprotein active transport | symptoms of anxiety [5]: rapid and sustained alleviation of their symptoms of anxiety | difference in MADRS change (V5 vs V0): TRD versus non-TRD patients ([6]; TRD ezogabine, non-TRD ezogabine and placebo groups, p=0.015): even larger benefit of treatment compared to placebo in the TRD patients than in the non-TRD patients | onset of improvement in MADRS scores, ezogabine TRD group ([6]; TRD patients, change over time): significant improvement after a single treatment | effect of treatment on MADRS in patients with TRD ([6]; TRD patients, ezogabine 900 mg/day vs placebo, ANOVA p=0.024): greatest improvement in their MADRS scores; also recorded: significant effect of treatment; also recorded: beneficial effects compared to placebo
